Laboratory results as given in PubChem BioAssay AID1963869 (Molecular Pharmacology Branch, DTP, NCI, 2024).

Test system: KRAS patient-derived spheroids with HUVEC/MSC, viability
Assay: Anticancer human tumor 323965-272-R-J2-PDC patient-derived pancreatic carcinoma cell line growth inhibition [KRAS2]
Details: for IC50: curve of first compound; for viability, T/C: stronger effect = lower value; active means viability on the fitted dose curve at most 10% of control; inactive means the rest
Source text: Multicellular complex tumor spheroid response to RAS pathway inhibitors in combination with a targeted agents in patient-derived cell lines with oncogenic KRAS variants from multiple cancer types
A high-throughput screen of multi-cell type tumor spheroids was designed to identify active combinations of targeted small molecules and KRAS pathway inhibitors. Complex spheroids include a stromal component modeled by human endothelial cells (HUVEC) and fibroblasts modeled by human mesenchymal stem cells (MSCs). The concentration ranges selected for each drug and investigational agent were based upon clinically achievable concentrations if the clinical Cmax of the agent was known.
Compounds. The drugs and investigational agents: BI-3406 (NSC825286), BAY-293 (NSC824723), batoprotafib (TNO155; NSC825523), sotorasib (AMG 510; NSC818433), MRTX1257 (NSC819558), elimusertib (BAY 1895344; NSC800525), molibresib (GSK525762; NSC774829), temuterkib (LY3214996; NSC803410), venetoclax (NSC766270), alisertib (NSC759677), olaparib (NSC753686), talazoparib (NSC767125), erdafitinib (NSC781556), ipatasertib (NSC767898), cabozantinib (NSC761068), nintedanib (NSC756659), abemaciclib (NSC768073), docetaxel (NSC628503), trametinib (NSC758246), and sapanisertib (NSC764658) were obtained from the National Cancer Institute (NCI) Developmental Therapeutics Program Chemical Repository. The FDA-approved anticancer drug set is available from the Developmental Therapeutics Program. […] The stock solutions were prepared in dimethyl sulfoxide (DMSO, Sigma-Aldrich, St. Louis, MO, cat. D2650) at 800-fold the tested concentration and stored at -70 degrees C prior to their use. All drugs and investigational agents were tested over a range starting from a high concentration at or near the clinical Cmax and decreasing in half-log increments. If the clinical Cmax for an agent had not been determined, the highest concentration tested was 10 microM.
Cell Culture. All cells were maintained in an incubator at 37 degrees C and 5% CO2 with 95% humidity. The PDC lines were cultured according to standard operating procedures established by the NCI PDMR (https://pdmr.cancer.gov/sops/default.htm). Briefly, all PDCs were thawed and cultured in Matrigel-coated flasks prepared with a working solution of 1X Ham's F-12 nutrient mix, without supplementation (Invitrogen, Waltham, MA, cat. 11765054), 100 U/mL penicillin-streptomycin (Invitrogen, cat. 15140122), and 2.5% Matrigel (Corning Inc., Corning, NY, cat. 354248) for the first three passages. All PDCs were cultured in complete DMEM/F-12 media containing advanced DMEM/F-12 (Invitrogen, cat. 12634028), 4.9% defined fetal bovine serum, heat inactivated (HyClone Laboratories Inc., Logan, UT, cat. SH30070.03HI), 389 ng/mL hydrocortisone (Sigma-Aldrich, cat. H4001), 9.7 ng/mL human EGF recombinant protein (Invitrogen, cat. PHG0313), 23.4 microg/mL adenine (Sigma-Aldrich, cat. A2786), 97.3 U/mL penicillin-streptomycin (Invitrogen, cat. 15140122), 1.9 mM L-glutamine (Invitrogen, cat. 25030081), and 9.7 microM Y-27632 dihydrochloride (Tocris Bioscience, Bristol, United Kingdom, cat. 1254). The PDCs were cultured in complete DMEM/F12 media without 9.7 microM Y-27632 dihydrochloride for at least two passages prior to the screen. The established cell line HOP-62 was cultured in RPMI 1640 medium, HEPES (Invitrogen, cat. 22400105) with 10% defined fetal bovine serum (HyClone Laboratories Inc., cat. SH30070.03) and 2 mM L-glutamine (Invitrogen, cat. 25030081). The pooled donor HUVEC were cultured in endothelial cell growth medium 2 (PromoCell, Heidelberg, Germany, cat. C-22011) and the hMSC were cultured in mesenchymal stem cell growth medium 2 (PromoCell, cat. C-28009). For all experiments, HUVEC and hMSC were used at passages </=5, while the malignant cell lines were used at passages </=15. […]

[1] = second compound 0.1 µM, first compound 0.0316 µM
[2] = second compound 0.1 µM, first compound 0.1 µM
[3] = second compound 0.1 µM, first compound 0.316 µM
[4] = second compound 0.1 µM, first compound 1 µM
[5] = second compound 0.316 µM, first compound 0.0316 µM
[6] = second compound 0.316 µM, first compound 0.1 µM
[7] = second compound 0.316 µM, first compound 0.316 µM
[8] = second compound 0.316 µM, first compound 1 µM
[9] = second compound 1 µM, first compound 0.0316 µM
[10] = second compound 1 µM, first compound 0.1 µM
[11] = second compound 1 µM, first compound 0.316 µM
[12] = second compound 1 µM, first compound 1 µM
[13] = second compound 3.16 µM, first compound 0.0316 µM
[14] = second compound 3.16 µM, first compound 0.1 µM
[15] = second compound 3.16 µM, first compound 0.316 µM
[16] = second compound 3.16 µM, first compound 1 µM
[17] = second compound 10 µM, first compound 0.0316 µM
[18] = second compound 10 µM, first compound 0.1 µM
[19] = second compound 10 µM, first compound 0.316 µM
[20] = second compound 10 µM, first compound 1 µM
[21] = second compound 0.1 µM, first compound 0.00316 µM
[22] = second compound 0.1 µM, first compound 0.01 µM
[23] = second compound 0.316 µM, first compound 0.00316 µM
[24] = second compound 0.316 µM, first compound 0.01 µM
[25] = second compound 1 µM, first compound 0.00316 µM
[26] = second compound 1 µM, first compound 0.01 µM
[27] = second compound 3.16 µM, first compound 0.00316 µM
[28] = second compound 3.16 µM, first compound 0.01 µM
[29] = second compound 10 µM, first compound 0.00316 µM
[30] = second compound 10 µM, first compound 0.01 µM
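Further: spheroids exposed to agents for 7 days.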

CC(C)NCC(C(=O)N1CCN(c2ncnc3c2C(C)CC3O)CC1)c1ccc(Cl)cc1 (stereo not given) + C=CC(=O)N1CCN(c2nc(=O)n(-c3c(C)ccnc3C(C)C)c3nc(-c4c(O)cccc4F)c(F)cc23)C(C)C1
53.5 nM: IC50 (second compound 3.16 µM)
< 31.6 nM: IC50 (second compound 10 µM)
80.4 nM: IC50 (second compound 0.316 µM)
159 nM: IC50 (second compound 1 µM)
inactive: viability, T/C [1] 62.4% | viability, T/C [2] 56.3% | viability, T/C [3] 43.5% | viability, T/C [4] 32.4% | viability, T/C (second compound 0.1 µM, first compound 3.16 µM) 27.1% | viability, T/C (second compound 0.1 µM, first compound 10 µM) 23.8% | viability, T/C [5] 56.8% | viability, T/C [6] 49.2% | viability, T/C [7] 40.2% | viability, T/C [8] 33% | viability, T/C (second compound 0.316 µM, first compound 3.16 µM) 26% | viability, T/C (second compound 0.316 µM, first compound 10 µM) 22.6% | viability, T/C [9] 61.2% | viability, T/C [10] 55% | viability, T/C [11] 42.3% | viability, T/C [12] 29.8% | viability, T/C (second compound 1 µM, first compound 3.16 µM) 26.4% | viability, T/C (second compound 1 µM, first compound 10 µM) 27.7% | viability, T/C [13] 52.1% | viability, T/C [14] 47.3% | viability, T/C [15] 37.8% | viability, T/C [16] 28.3% | viability, T/C (second compound 3.16 µM, first compound 3.16 µM) 26.9% | viability, T/C (second compound 3.16 µM, first compound 10 µM) 27.4% | viability, T/C [17] 42.8% | viability, T/C [18] 49.7% | viability, T/C [19] 30.5% | viability, T/C [20] 21.5% | viability, T/C (second compound 10 µM, first compound 3.16 µM) 22.9% | viability, T/C (second compound 10 µM, first compound 10 µM) 18%
175 nM: IC50 (second compound 0.1 µM)

CCN1CCN(Cc2ccc(Nc3ncc(F)c(-c4cc(F)c5nc(C)n(C(C)C)c5c4)n3)nc2)CC1 + C=CC(=O)N1CCN(c2nc(=O)n(-c3c(C)ccnc3C(C)C)c3nc(-c4c(O)cccc4F)c(F)cc23)C(C)C1
8.91 nM: IC50 (second compound 0.1 µM)
11.7 nM: IC50 (second compound 1 µM)
6.62 nM: IC50 (second compound 0.316 µM)
inactive: viability, T/C [21] 57.6% | viability, T/C [22] 54.7% | viability, T/C [1] 39.8% | viability, T/C [2] 37.5% | viability, T/C [3] 37.1% | viability, T/C [4] 43.1% | viability, T/C [23] 59.8% | viability, T/C [24] 46.5% | viability, T/C [5] 38.7% | viability, T/C [6] 29.6% | viability, T/C [7] 33.5% | viability, T/C [8] 43.8% | viability, T/C [25] 51% | viability, T/C [26] 52.8% | viability, T/C [9] 36.4% | viability, T/C [10] 35.5% | viability, T/C [11] 31.6% | viability, T/C [12] 48.8% | viability, T/C [27] 56.6% | viability, T/C [28] 49.1% | viability, T/C [13] 38.1% | viability, T/C [14] 39.5% | viability, T/C [15] 33.4% | viability, T/C [16] 51.5% | viability, T/C [29] 38.6% | viability, T/C [30] 52.2% | viability, T/C [17] 37.6% | viability, T/C [18] 36.5% | viability, T/C [19] 37.1% | viability, T/C [20] 45.4%
< 3.16 nM: IC50 (second compound 10 µM)
6.49 nM: IC50 (second compound 3.16 µM)

Cn1ncnc1[C@H]1c2n[nH]c(=O)c3cc(F)cc(c23)N[C@@H]1c1ccc(F)cc1 + C=CC(=O)N1CCN(c2nc(=O)n(-c3c(C)ccnc3C(C)C)c3nc(-c4c(O)cccc4F)c(F)cc23)C(C)C1
> 100 nM: IC50 (second compound 0.1 µM) | IC50 (second compound 0.316 µM) | IC50 (second compound 1 µM) | IC50 (second compound 3.16 µM)
inactive: viability, T/C (second compound 0.1 µM, first compound 0.000316 µM) 59.7% | viability, T/C (second compound 0.1 µM, first compound 0.001 µM) 65.8% | viability, T/C [21] 58.8% | viability, T/C [22] 57.8% | viability, T/C [1] 58.9% | viability, T/C [2] 55.7% | viability, T/C (second compound 0.316 µM, first compound 0.000316 µM) 63% | viability, T/C (second compound 0.316 µM, first compound 0.001 µM) 63.2% | viability, T/C [23] 61.2% | viability, T/C [24] 55% | viability, T/C [5] 64% | viability, T/C [6] 57.4% | viability, T/C (second compound 1 µM, first compound 0.000316 µM) 72.5% | viability, T/C (second compound 1 µM, first compound 0.001 µM) 64.2% | viability, T/C [25] 68.3% | viability, T/C [26] 58.7% | viability, T/C [9] 63.9% | viability, T/C [10] 57% | viability, T/C (second compound 3.16 µM, first compound 0.000316 µM) 63.6% | viability, T/C (second compound 3.16 µM, first compound 0.001 µM) 65.6% | viability, T/C [27] 63.5% | viability, T/C [28] 64.7% | viability, T/C [13] 67.3% | viability, T/C [14] 54.6% | viability, T/C (second compound 10 µM, first compound 0.000316 µM) 58.8% | viability, T/C (second compound 10 µM, first compound 0.001 µM) 62.7% | viability, T/C [29] 57.4% | viability, T/C [30] 50.4% | viability, T/C [17] 50.9% | viability, T/C [18] 41.2%
23.7 nM: IC50 (second compound 10 µM)
